Measured values as given in patent US8906911B2, “Chemokine receptor antagonists” (AbbVie Inc., priority 2012, dated 2014).
Like-named read-outs stand apart in the source and are kept apart here.

Legend:
human CCR2B [1] = molecular target: T1, human CCR2B (Homo sapiens (Human), UniProt P41597); experiment: Inhibition of native agonist (human MCP-1)-induced intracellular calcium release, calcium flux assay in CHO cells expressing human CCR2B and Gα16; type: cell-based; details: for IC50: read-out: hCCR2B IC50; for Kb: read-out: hCCR2B Kb
In short: (§1)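 Compound added to Calcium 4 dye-loaded adherent cells (dye loading 60 min, 37° C., HEPES pH 7.4 buffer with probenecid), then agonist: human MCP-1 at 2 nM final for hCCR2B cells, rat MCP-1 at 4 nM final for rCCR2 cells. FLIPR fluorescence change gave IC50. Kb=IC50/(1+[agonist]/EC50). Final DMSO 0.25%.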

rat CCR2 = rat CCR2 (Rattus norvegicus (Rat), UniProt O55193); experiment: Inhibition of native agonist (rat MCP-1)-induced intracellular calcium release, calcium flux assay in CHO cells expressing rat CCR2 and Gα16; type: cell-based; details: read-out: rCCR2 Kb
In short: as §1

human CCR2B [2] = molecular target: T1, human CCR2B; experiment: Inhibition of [125I]-labeled MCP-1 binding to hCCR2B (radioligand binding in CHO cells); details: mean Ki; [125I]-MCP-1 50 pM; CHO cells expressing human CCR2B and Gα16
From the text: CHO cells expressing human CCR2B were generated as follows. cDNA for human CCR2B (cloned from human blood) was cloned into plasmid pcDNA3.1 (from Invitrogen). The resulting plasmids were separately transfected into CHO cells expressing human Gα16 (from Molecular Devices). […] CHO cells expressing rat CCR2 were generated as follows. cDNA for rat CCR2 (cloned from rat macrophage) was cloned into plasmid pEF-flag (from Chinese Academy of Science). The resulting plasmids were transfected into CHO cells expressing human Gα16 (from […]).
Inhibition of [^125I]-Labeled MCP-1 Binding to hCCR2B
Radioligand binding assays were performed in CHO cells expressing human CCR2B and Gα16 coupling protein. All compounds were dissolved in DMSO and assays run at a final DMSO concentration of 0.5% (v/v). [^125I]-labeled human MCP-1 was purchased from PerkinElmer. Unlabelled human MCP-1 was purchased from PeproTech.
Compounds were serially diluted in DMSO before diluting into assay buffer (25 mM HEPES, pH 7.4, 5 mM MgCl2, 1 mM CaCl2, 0.5% BSA) with cryo preserved CHO cells expressing human CCR2B and the Gα16 coupling protein (30×10^3/well) and [^125I]-MCP-1 (50 pM). The reaction was incubated at room temperature for 90 minutes before transferring to GF/C filter membrane (PerkinElmer) pre-treated with 0.3% polyethyleneimine for 2 hours at 4° C. The filter membrane was washed six times with ice cold wash buffer (25 mM HEPES, pH 7.4, 5 mM MgCl2, 1 mM CaCl2, 500 mM NaCl, 0.01% (m/v) azide), dried, and sealed in a RLB sample bag (Agilent Technologies) before adding 5.0 mL Microscint 20 to each bag. Membrane was counted on Microbeta counter where background binding was determined by the presence of 100 nM MCP-1 and control total binding was determined by addition of DMSO in place of the test compound. The radioactivity values (cpm) were used to calculate the percent inhibition at a given compound concentration and the data fit to a sigmoidal curve in a semi-log plot to determine IC50 values. The corresponding Ki value is calculated as follows:
Ki=IC50/(1+[radioligand]/Kd), where [radioligand] is the concentration of the label and Kd (dissociation constant) is determined in saturation experiment with different concentrations of labeled MCP-1.

T1 sequence (P41597 other isoform, or with tags, fused parts or gaps): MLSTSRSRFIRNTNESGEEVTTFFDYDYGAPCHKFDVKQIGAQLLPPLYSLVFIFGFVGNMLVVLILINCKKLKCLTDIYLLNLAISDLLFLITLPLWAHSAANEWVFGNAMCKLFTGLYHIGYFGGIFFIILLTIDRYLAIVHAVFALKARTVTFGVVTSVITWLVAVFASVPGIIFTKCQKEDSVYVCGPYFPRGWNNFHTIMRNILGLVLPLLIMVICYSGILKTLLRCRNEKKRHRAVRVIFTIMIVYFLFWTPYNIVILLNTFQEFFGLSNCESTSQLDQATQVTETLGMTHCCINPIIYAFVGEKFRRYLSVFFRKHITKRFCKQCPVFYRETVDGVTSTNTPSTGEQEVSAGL
rat CCR2, sequence (O55193 whole entry): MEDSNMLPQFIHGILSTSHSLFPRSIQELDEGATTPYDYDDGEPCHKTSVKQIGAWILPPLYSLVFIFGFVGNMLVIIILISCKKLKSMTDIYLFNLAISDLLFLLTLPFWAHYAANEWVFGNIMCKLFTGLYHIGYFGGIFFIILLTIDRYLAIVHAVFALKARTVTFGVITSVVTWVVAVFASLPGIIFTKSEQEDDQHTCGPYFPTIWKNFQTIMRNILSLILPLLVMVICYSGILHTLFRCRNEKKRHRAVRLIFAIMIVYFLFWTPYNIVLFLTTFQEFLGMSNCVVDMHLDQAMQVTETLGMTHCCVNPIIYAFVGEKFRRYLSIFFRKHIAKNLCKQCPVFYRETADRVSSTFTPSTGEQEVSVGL

Row | SMILES | IC50 (human CCR2B [1]; calcium flux, human MCP-1 2 nM) | Kb (human CCR2B [1]) | Kb (rat CCR2) | Ki (human CCR2B [2]) | IC50 (human CCR2B [1])
1 | CO[C@@H]1COCC[C@@H]1N[C@@H]1C[C@H]2CCC[C@@]2(C(=O)N2C[C@@H]3C[C@H]2CN3c2ccc(Cl)c(Cl)c2)C1 [Example 40, 1,5-anhydro-2,3-dideoxy-3-{[(2R,3aR,6aR)-3a-{[(1S,4S)-5-(3,4-dichlorophenyl)-2,5-diazabicyclo[2.2.1]hept-2-yl]carbonyl}octahydropentalen-2-yl]amino}-4-O-methyl-D-erythro-pentitol] | 0.0415 µM | 0.01 µM | 0.003 µM | 0.038 µM | –
2 | CO[C@@H]1COCC[C@@H]1N[C@@H]1C[C@H]2CCC[C@@]2(C(=O)N2C[C@@H]3C[C@H]2CN3c2ccc(Cl)c(C#N)c2)C1 [Example 47, 1,5-anhydro-3-{[(2R,3aR,6aR)-3a-{[(1S,4S)-5-(4-chloro-3-cyanophenyl)-2,5-diazabicyclo[2.2.1]hept-2-yl]carbonyl}octahydropentalen-2-yl]amino}-2,3-dideoxy-4-O-methyl-D-erythro-pentitol] | – | 0.012 µM | 0.004 µM | 0.077 µM | 0.0498 µM
3 | N#Cc1ccc(C(F)(F)F)cc1N1C[C@@H]2C[C@H]1CN2C(=O)[C@@]12CCC[C@@H]1C[C@@H](N1CCC(c3ccccc3)CC1)C2 [Example 48, 2-[(1S,4S)-5-{[(2R,3aR,6aR)-2-(4-phenylpiperidin-1-yl)hexahydropentalen-3a(1H)-yl]carbonyl}-2,5-diazabicyclo[2.2.1]hept-2-yl]-4-(trifluoromethyl)benzonitrile] | – | 0.013 µM | 0.017 µM | 0.008 µM | 0.0518 µM
4 | O=C(N1C[C@@H]2C[C@H]1CN2c1cc(C(F)(F)F)ccn1)[C@@]12CCC[C@@H]1C[C@@H](N1CCC(c3ccccc3)CC1)C2 [Example 49, [(2R,3aR,6aR)-2-(4-phenylpiperidin-1-yl)hexahydropentalen-3a(1H)-yl]{(1S,4S)-5-[4-(trifluoromethyl)pyridin-2-yl]-2,5-diazabicyclo[2.2.1]hept-2-yl}methanone] | – | 0.009 µM | 0.023 µM | 0.015 µM | 0.037 µM
5 | CO[C@@H]1COCC[C@@H]1N[C@@H]1C[C@H]2CCC[C@@]2(C(=O)N2C[C@@H]3C[C@H]2CN3c2cc(C(F)(F)F)ccc2C(F)(F)F)C1 [Example 50, 1,5-anhydro-3-{[(2R,3aR,6aR)-3a-({(1S,4S)-5-[2,5-bis(trifluoromethyl)phenyl]-2,5-diazabicyclo[2.2.1]hept-2-yl}carbonyl)octahydropentalen-2-yl]amino}-2,3-dideoxy-4-O-methyl-D-erythro-pentitol] | – | 0.006 µM | 0.006 µM | 0.078 µM | 0.0259 µM
6 | CO[C@@H]1COCC[C@@H]1N(C)[C@@H]1C[C@H]2CCC[C@@]2(C(=O)N2C[C@@H]3C[C@H]2CN3c2ccc(Cl)c(C(F)(F)F)c2)C1 [Example 51, 1,5-anhydro-3-{[(2R,3aR,6aR)-3a-({(1S,4S)-5-[4-chloro-3-(trifluoromethyl)phenyl]-2,5-diazabicyclo[2.2.1]hept-2-yl}carbonyl)octahydropentalen-2-yl](methyl)amino}-2,3-dideoxy-4-O-methyl-D-erythro-pentitol] | 0.0433 µM | 0.011 µM | 0.029 µM | 0.021 µM | –
7 | CO[C@@H]1COCC[C@@H]1N(C)[C@@H]1C[C@H]2CCC[C@@]2(C(=O)N2C[C@@H]3C[C@H]2CN3c2cc(C(F)(F)F)ccc2C(F)(F)F)C1 [Example 52, 1,5-anhydro-3-{[(2R,3aR,6aR)-3a-({(1S,4S)-5-[2,5-bis(trifluoromethyl)phenyl]-2,5-diazabicyclo[2.2.1]hept-2-yl}carbonyl)octahydropentalen-2-yl](methyl)amino}-2,3-dideoxy-4-O-methyl-D-erythro-pentitol] | – | 0.021 µM | 0.038 µM | 0.049 µM | 0.0839 µM
8 | CO[C@@H]1COCC[C@@H]1N(C)[C@@H]1C[C@H]2CCC[C@@]2(C(=O)N2C[C@@H]3C[C@H]2CN3c2cc(C(F)(F)F)ccc2C#N)C1 [Example 53, 1,5-anhydro-3-{[(2R,3aR,6aR)-3a-({(1S,4S)-5-[2-cyano-5-(trifluoromethyl)phenyl]-2,5-diazabicyclo[2.2.1]hept-2-yl}carbonyl)octahydropentalen-2-yl](methyl)amino}-2,3-dideoxy-4-O-methyl-D-erythro-pentitol] | – | 0.012 µM | 0.026 µM | 0.016 µM | 0.0479 µM
9 | CO[C@@H]1COCC[C@@H]1N(C)[C@@H]1C[C@H]2CCC[C@@]2(C(=O)N2C[C@@H]3C[C@H]2CN3c2ccc(C#N)c(C(F)(F)F)c2)C1 [Example 56, 1,5-anhydro-3-{[(2R,3aR,6aR)-3a-({(1S,4S)-5-[4-cyano-3-(trifluoromethyl)phenyl]-2,5-diazabicyclo[2.2.1]hept-2-yl}carbonyl)octahydropentalen-2-yl](methyl)amino}-2,3-dideoxy-4-O-methyl-D-erythro-pentitol] | 0.046 µM | 0.011 µM | 0.009 µM | 0.032 µM | –
10 | CO[C@@H]1COCC[C@@H]1N[C@@H]1C[C@H]2CCC[C@@]2(C(=O)N2C[C@@H]3C[C@H]2CN3C(=O)OC(C)(C)C)C1 [Example 60, 1,5-anhydro-3-{[(2R,3aR,6aR)-3a-{[(1S,4S)-5-(tert-butoxycarbonyl)-2,5-diazabicyclo[2.2.1]hept-2-yl]carbonyl}octahydropentalen-2-yl]amino}-2,3-dideoxy-4-O-methyl-D-erythro-pentitol] | – | 0.081 µM | 0.019 µM | 0.552 µM | 0.328 µM
11 | C[C@H]1COCC[C@@H]1N[C@@H]1C[C@H]2CCC[C@@]2(C(=O)N2C[C@@H]3C[C@H]2CN3c2cc(C(F)(F)F)ccn2)C1 [Example 61, [(2R,3aR,6aR)-2-{[(3R,4S)-3-methyltetrahydro-2H-pyran-4-yl]amino}hexahydropentalen-3a(1H)-yl]{(1S,4S)-5-[4-(trifluoromethyl)pyridin-2-yl]-2,5-diazabicyclo[2.2.1]hept-2-yl}methanone] | 0.1 µM | 0.025 µM | 0.03 µM | 0.069 µM | –
12 | C[C@@H]1COCC[C@@H]1N[C@@H]1C[C@H]2CCC[C@@]2(C(=O)N2C[C@@H]3C[C@H]2CN3c2cc(C(F)(F)F)ccn2)C1 [Example 63, [(2R,3aR,6aR)-2-{[(3S,4S)-3-methyltetrahydro-2H-pyran-4-yl]amino}hexahydropentalen-3a(1H)-yl]{(1S,4S)-5-[4-(trifluoromethyl)pyridin-2-yl]-2,5-diazabicyclo[2.2.1]hept-2-yl}methanone] | 0.0179 µM | 0.004 µM | 0.006 µM | 0.01 µM | –
13 | C[C@@H]1COCC[C@H]1N[C@@H]1C[C@H]2CCC[C@@]2(C(=O)N2C[C@@H]3C[C@H]2CN3c2cc(C(F)(F)F)ccn2)C1 [Example 64, [(2R,3aR,6aR)-2-{[(3S,4R)-3-methyltetrahydro-2H-pyran-4-yl]amino}hexahydropentalen-3a(1H)-yl]{(1S,4S)-5-[4-(trifluoromethyl)pyridin-2-yl]-2,5-diazabicyclo[2.2.1]hept-2-yl}methanone] | 0.0165 µM | 0.004 µM | 0.009 µM | 0.012 µM | –
14 | CC[C@@H]1COCC[C@@H]1N[C@@H]1C[C@H]2CCC[C@@]2(C(=O)N2C[C@@H]3C[C@H]2CN3c2cc(C(F)(F)F)ccn2)C1 [Example 65, [(2R,3aR,6aR)-2-{[(3S,4S)-3-ethyltetrahydro-2H-pyran-4-yl]amino}hexahydropentalen-3a(1H)-yl]{(1S,4S)-5-[4-(trifluoromethyl)pyridin-2-yl]-2,5-diazabicyclo[2.2.1]hept-2-yl}methanone] | – | 0.007 µM | 0.008 µM | 0.006 µM | 0.028 µM
15 | CC[C@@H]1COCC[C@H]1N[C@@H]1C[C@H]2CCC[C@@]2(C(=O)N2C[C@@H]3C[C@H]2CN3c2cc(C(F)(F)F)ccn2)C1 [Example 66, [(2R,3aR,6aR)-2-{[(3S,4R)-3-ethyltetrahydro-2H-pyran-4-yl]amino}hexahydropentalen-3a(1H)-yl]{(1S,4S)-5-[4-(trifluoromethyl)pyridin-2-yl]-2,5-diazabicyclo[2.2.1]hept-2-yl}methanone] | 0.0458 µM | 0.011 µM | 0.008 µM | 0.013 µM | –
